What was measured:
[1] = tested on: post-infectious IBS; details: recent study, Dunlap et al. 2003; cited from earlier work
[2] = tested on: HCl-ethanol gastric damage; details: cited from earlier work
[3] = tested on: human foreskin fibroblast cells; details: cited from earlier work
[4] = tested on: functional dyspepsia or irritable bowel syndrome; assay: Veterinary case report: cat diagnosed with functional dyspepsia or irritable bowel syndrome given zinc-carnosine; type: in vivo; details: 15 mg BID
Text: A five year old, eight pound Siamese cat presented to vet with severe diarrhea, severe visible discomfort, inappetence and losing weight. […] Blood tests indicated no abnormalities and a stool samples indicated the cat was parasite free. The diagnosis of functional dyspepsia or irritable bowel syndrome made.

[5] = tested on: water immersion stress; details: cited from earlier work
[6] = tested on: gastric ulcer; details: clinical trials, versus placebo; cited from earlier work
[7] = tested on: functional dyspepsia or irritable bowel syndrome; assay: Veterinary case reports: dogs diagnosed with functional dyspepsia or irritable bowel syndrome given zinc-carnosine; type: in vivo; details: dog, 30 mg/day
Text: Ellie, a three year old, sixteen pound West Highland Terrier presented to vet with visible discomfort, loose stools and intermittent diarrhea. […] The diagnosis of functional dyspepsia or irritable bowel syndrome made.
Katelyn, a six year old, fourteen pound Boston Terrier presented to vet with visible discomfort, diarrhea, vomiting and inappetence. […] Blood tests indicated no abnormalities and a stool samples indicated the dog was parasite free. The diagnosis of functional dyspepsia or irritable bowel syndrome made.

[8] = based on current evidence; cited from earlier work
[9] = tested on: TNBS model of colitis; details: cited from earlier work
[10] = tested on: human umbilical vein endothelial cells; details: cited from earlier work
[11] = tested on: human MCT3-E1 cells (osteoblasts); details: cited from earlier work

| Compound | efficacy for treating post-infectious IBS [1] | effect in animal model of gut ulceration and gross inflammation [2] | stimulation of growth (proliferation) [3] | symptoms at check up ([4]; four week check up) | improvement of conditions (diarrhea, discomfort, inappetence, weight loss) ([4]; within seven days) | effect in animal model of gut ulceration and gross inflammation [5] | effect in treatment of gastric ulcer [6] | improvement of conditions (discomfort, diarrhea, vomiting, inappetence) ([7]; course during treatment) | symptoms at check up ([7]; four week check up) | improvement of condition (discomfort, loose stools, diarrhea) ([7]; two week and four week follow-up visits) | side effects [8] | effect in animal model of gut ulceration and gross inflammation [9] | stimulation of growth (proliferation) [10] | stimulation of growth (proliferation) [11] |
| --- | --- | --- | --- | --- | --- | --- | --- | --- | --- | --- | --- | --- | --- | --- |
| C[C@]12C=CC(=O)C=C1CC[C@@H]1[C@@H]2[C@@H](O)C[C@@]2(C)[C@H]1CC[C@]2(O)C(=O)CO [predinisolone] | ineffective |  |  |  |  |  |  |  |  |  |  |  |  |  |
| Zinc-Carnosine |  | beneficial effects | able to stimulate growth (proliferation) | No further symptoms | conditions improved significantly | beneficial effects | beneficial effect above placebo | conditions improved on a daily basis | No further symptoms | significant improvement | little or no side effects | beneficial effects | able to stimulate growth (proliferation) | able to stimulate growth (proliferation) |
